Reference: patent publication US6525001B1, “Substituted pyrimidine and pyridine herbicides” (Mid-American Commercialization Corporation, priority 1997, dated 2003)

Tests used:
Experiment in all cases: Test B pre-/postemergence
Assay type in all cases: in vivo
Parameters in all cases: key: 0 is no effect; 10 is complete control
[1] = system: bedstraw (Galium aparine)
In short: (§1)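 Compounds in a surfactant-containing, non-phytotoxic solvent blend are applied to freshly planted seed (preemergence) and, concurrently, to seedlings of 2 to 18 cm at 1–4 leaves (postemergence). Plants stay in the greenhouse twelve to sixteen days and are then scored visually from 0 (no effect) to 10 (complete control).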

[2] = system: crabgrass (Digitaria sanguinalis)
In short: as §1

[3] = system: sugar beet (Beta vulgaris)
In short: as §1

[4] = system: giant foxtail (Setaria faberii)
In short: as §1

[5] = system: cocklebur (Xanthium strumarium)
In short: as §1

[6] = system: wheat (Triticum aestivum)
In short: as §1

[7] = system: purple nutsedge (Cyperus rotundus)
In short: as §1

[8] = system: momingglory (Ipomoea hederacea)
In short: as §1

soybean (Glycine max) = system: soybean (Glycine max)
In short: as §1

rape (Brassica napus) = system: rape (Brassica napus)
In short: as §1

[9] = system: velvetleaf (Abutilon theophrasti)
In short: as §1

corn (Zea mays) = system: corn (Zea mays)
In short: as §1

[10] = system: pigweed (Amaranthus retroflexus)
In short: as §1

[11] = system: broadleaf signalgrass (Brachiaria decumbens)
In short: as §1

[12] = Preemergence, Rate 62 g/ha, scale of 0 to 10

Cc1cnc(-c2ccc(C(F)(F)F)cc2)nc1Cn1cc(Br)cn1 [Compound 54]
Plant response rating, Bedstraw [1, 12]: 0 | Bedstraw plant response rating ([1]; Rate 62 g/ha, Postemergence): 3 | Bedstraw plant response rating ([1]; Rate 125 g/ha, Postemergence): 4 | Plant response rating, Bedstraw ([1]; Rate 125 g/ha, Preemergence): 0 | Plant response rating, Bedstraw ([1]; Rate 250 g/ha, Postemergence): 7 | Plant response rating, Bedstraw ([1]; Rate 250 g/ha, Preemergence): 1 | Plant response rating, Bedstraw ([1]; Rate 500 g/ha, Postemergence): 9 | Plant response rating, Bedstraw ([1]; Rate 500 g/ha, Preemergence): 4 | Plant response rating, Crabgrass [2, 12]: 0 | Crabgrass plant response rating ([2]; Rate 62 g/ha, Postemergence): 2 | Crabgrass plant response rating ([2]; Rate 125 g/ha, Postemergence): 4 | Plant response rating, Crabgrass ([2]; Rate 125 g/ha, Preemergence): 0 | Plant response rating, Crabgrass ([2]; Rate 250 g/ha, Postemergence): 5 | Plant response rating, Crabgrass ([2]; Rate 250 g/ha, Preemergence): 3 | Plant response rating, Crabgrass ([2]; Rate 500 g/ha, Postemergence): 5 | Plant response rating, Crabgrass ([2]; Rate 500 g/ha, Preemergence): 8 | Plant response rating, Sugarbeets [3, 12]: 0 | Sugarbeets plant response rating ([3]; Rate 62 g/ha, Postemergence): 6 | Sugarbeets plant response rating ([3]; Rate 125 g/ha, Postemergence): 7 | Plant response rating, Sugarbeets ([3]; Rate 125 g/ha, Preemergence): 1 | Plant response rating, Sugarbeets ([3]; Rate 250 g/ha, Postemergence): 9 | Plant response rating, Sugarbeets ([3]; Rate 250 g/ha, Preemergence): 7 | Plant response rating, Sugarbeets ([3]; Rate 500 g/ha, Postemergence): 9 | Plant response rating, Sugarbeets ([3]; Rate 500 g/ha, Preemergence): 9 | Plant response rating, Giant foxtail [4, 12]: 1 | Giant foxtail plant response rating ([4]; Rate 62 g/ha, Postemergence): 2 | Giant foxtail plant response rating ([4]; Rate 125 g/ha, Postemergence): 3 | Plant response rating, Giant foxtail ([4]; Rate 125 g/ha, Preemergence): 1 | Plant response rating, Giant foxtail ([4]; Rate 250 g/ha, Postemergence): 4 | Plant response rating, Giant foxtail ([4]; Rate 250 g/ha, Preemergence): 8 | Plant response rating, Giant foxtail ([4]; Rate 500 g/ha, Postemergence): 4 | Plant response rating, Giant foxtail ([4]; Rate 500 g/ha, Preemergence): 10 | Cocklebur plant response rating ([5]; Rate 62 g/ha, Postemergence): 3 | Cocklebur plant response rating ([5]; Rate 125 g/ha, Postemergence): 3 | Plant response rating, Cocklebur ([5]; Rate 125 g/ha, Preemergence): 0 | Plant response rating, Cocklebur ([5]; Rate 250 g/ha, Postemergence): 7 | Plant response rating, Cocklebur ([5]; Rate 250 g/ha, Preemergence): 0 | Plant response rating, Cocklebur ([5]; Rate 500 g/ha, Postemergence): 9 | Plant response rating, Cocklebur ([5]; Rate 500 g/ha, Preemergence): 0 | Plant response rating, Wheat [6, 12]: 0 | Wheat plant response rating ([6]; Rate 62 g/ha, Postemergence): 0 | Wheat plant response rating ([6]; Rate 125 g/ha, Postemergence): 2 | Plant response rating, Wheat ([6]; Rate 125 g/ha, Preemergence): 0 | Plant response rating, Wheat ([6]; Rate 250 g/ha, Postemergence): 2 | Plant response rating, Wheat ([6]; Rate 250 g/ha, Preemergence): 0 | Plant response rating, Wheat ([6]; Rate 500 g/ha, Postemergence): 2 | Plant response rating, Wheat ([6]; Rate 500 g/ha, Preemergence): 1 | Plant response rating, Nutsedge [7, 12]: 0 | Nutsedge plant response rating ([7]; Rate 62 g/ha, Postemergence): 0 | Nutsedge plant response rating ([7]; Rate 125 g/ha, Postemergence): 0 | Plant response rating, Nutsedge ([7]; Rate 125 g/ha, Preemergence): 0 | Plant response rating, Nutsedge ([7]; Rate 250 g/ha, Postemergence): 0 | Plant response rating, Nutsedge ([7]; Rate 250 g/ha, Preemergence): 0 | Plant response rating, Nutsedge ([7]; Rate 500 g/ha, Postemergence): 0 | Plant response rating, Nutsedge ([7]; Rate 500 g/ha, Preemergence): 0 | Plant response rating, Morningglory [8, 12]: 0 | Morningglory plant response rating ([8]; Rate 62 g/ha, Postemergence): 2 | Morningglory plant response rating ([8]; Rate 125 g/ha, Postemergence): 3 | Plant response rating, Morningglory ([8]; Rate 125 g/ha, Preemergence): 1 | Plant response rating, Morningglory ([8]; Rate 250 g/ha, Postemergence): 3 | Plant response rating, Morningglory ([8]; Rate 250 g/ha, Preemergence): 2 | Plant response rating, Morningglory ([8]; Rate 500 g/ha, Postemergence): 10 | Plant response rating, Morningglory ([8]; Rate 500 g/ha, Preemergence): 2 | Plant response rating, Soybean (soybean (Glycine max); [12]): 0 | Soybean plant response rating (soybean (Glycine max); Rate 62 g/ha, Postemergence): 0 | Soybean plant response rating (soybean (Glycine max); Rate 125 g/ha, Postemergence): 3 | Plant response rating, Soybean (soybean (Glycine max); Rate 125 g/ha, Preemergence): 0 | Plant response rating, Soybean (soybean (Glycine max); Rate 250 g/ha, Postemergence): 4 | Plant response rating, Soybean (soybean (Glycine max); Rate 250 g/ha, Preemergence): 0 | Plant response rating, Soybean (soybean (Glycine max); Rate 500 g/ha, Postemergence): 4 | Plant response rating, Soybean (soybean (Glycine max); Rate 500 g/ha, Preemergence): 0 | Plant response rating, Rape (rape (Brassica napus); [12]): 0 | Rape plant response rating (rape (Brassica napus); Rate 62 g/ha, Postemergence): 7 | Rape plant response rating (rape (Brassica napus); Rate 125 g/ha, Postemergence): 8 | Plant response rating, Rape (rape (Brassica napus); Rate 125 g/ha, Preemergence): 0 | Plant response rating, Rape (rape (Brassica napus); Rate 250 g/ha, Postemergence): 9 | Plant response rating, Rape (rape (Brassica napus); Rate 250 g/ha, Preemergence): 3 | Plant response rating, Rape (rape (Brassica napus); Rate 500 g/ha, Postemergence): 9 | Plant response rating, Rape (rape (Brassica napus); Rate 500 g/ha, Preemergence): 3 | Plant response rating, Velvetleaf [9, 12]: 0 | Velvetleaf plant response rating ([9]; Rate 62 g/ha, Postemergence): 2 | Velvetleaf plant response rating ([9]; Rate 125 g/ha, Postemergence): 2 | Plant response rating, Velvetleaf ([9]; Rate 125 g/ha, Preemergence): 0 | Plant response rating, Velvetleaf ([9]; Rate 250 g/ha, Postemergence): 3 | Plant response rating, Velvetleaf ([9]; Rate 250 g/ha, Preemergence): 1 | Plant response rating, Velvetleaf ([9]; Rate 500 g/ha, Postemergence): 3 | Plant response rating, Velvetleaf ([9]; Rate 500 g/ha, Preemergence): 1 | Plant response rating, Corn (corn (Zea mays); [12]): 0 | Corn plant response rating (corn (Zea mays); Rate 62 g/ha, Postemergence): 2 | Corn plant response rating (corn (Zea mays); Rate 125 g/ha, Postemergence): 2 | Plant response rating, Corn (corn (Zea mays); Rate 125 g/ha, Preemergence): 0 | Plant response rating, Corn (corn (Zea mays); Rate 250 g/ha, Postemergence): 3 | Plant response rating, Corn (corn (Zea mays); Rate 250 g/ha, Preemergence): 1 | Plant response rating, Corn (corn (Zea mays); Rate 500 g/ha, Postemergence): 3 | Plant response rating, Corn (corn (Zea mays); Rate 500 g/ha, Preemergence): 1 | Plant response rating, Redroot pigweed [10, 12]: 1 | Redroot pigweed plant response rating ([10]; Rate 62 g/ha, Postemergence): 4 | Redroot pigweed plant response rating ([10]; Rate 125 g/ha, Postemergence): 5 | Plant response rating, Redroot pigweed ([10]; Rate 125 g/ha, Preemergence): 2 | Plant response rating, Redroot pigweed ([10]; Rate 250 g/ha, Postemergence): 6 | Plant response rating, Redroot pigweed ([10]; Rate 250 g/ha, Preemergence): 7 | Plant response rating, Redroot pigweed ([10]; Rate 500 g/ha, Postemergence): 7 | Plant response rating, Redroot pigweed ([10]; Rate 500 g/ha, Preemergence): 9 | B. signalgrass plant response rating ([11]; Rate 62 g/ha, Postemergence): 3 | B. signalgrass plant response rating ([11]; Rate 62 g/ha, Preemergence): 0 | B. signalgrass plant response rating ([11]; Rate 125 g/ha, Postemergence): 3 | Plant response rating, B. signalgrass ([11]; Rate 125 g/ha, Preemergence): 1 | Plant response rating, B. signalgrass ([11]; Rate 250 g/ha, Postemergence): 4 | Plant response rating, B. signalgrass ([11]; Rate 250 g/ha, Preemergence): 3 | Plant response rating, B. signalgrass ([11]; Rate 500 g/ha, Postemergence): 5 | Plant response rating, B. signalgrass ([11]; Rate 500 g/ha, Preemergence): 6
